Assay results reported in publication PMC11024869, “The activity of antimicrobial peptoids against multidrug-resistant ocular pathogens” (Contact lens & anterior eye : the journal of the British …, 2024).
≈ marks a conversion by molar mass, not a printed value. Non-standard residues stand in square brackets, D forms with d. Residues, ends and D or L forms follow the SMILES beside them. Nspe = C[C@H](NCC(=O)O)c1ccccc1; NDecylGly = CCCCCCCCCCNCC(=O)O; Nlys = NCCCCNCC(=O)O

Tests used:
Format in all cases: cell-based
[1] = test system: Pseudomonas aeruginosa PA219; details: PA219, MHB, 24 h 37 °C
From the text: (§3) The S. pneumoniae strains used were SP04, SP06 and SP07 [46] and Streptococcus gallolyticus SV06 (all isolated from eyes of contact lens wearers during adverse events); P. aeruginosa PAO1 (which was originally isolated from a wound, and is an invasive strain containing the gene exoS) as well as isolates from microbial keratitis, PA 235 (invasive strain containing exoS), PA216 (a cytotoxic strain containing exoU), PA219 (cytotoxic strain containing exoU), PA 233 (cytotoxic strain containing exoU), with various susceptibilities to antibiotics were also used [14]. C. albicans ATCC 10231, a yeast, isolated from case of a human bronchomycosis, was also evaluated.
(§4) The peptoids’ minimum inhibitory and bactericidal concentrations (MIC and MBC) were determined using micro broth dilution methods as previously described with slight modifications, [26, 39, 49, 50], and without using acetic acid and bovine serum albumin [39]. Briefly, bacteria or yeast were suspended in Muller Hinton broth (MHB, Oxoid, Thermo Fisher Scientific, Thebarton, SA, Australia) at 0.1 OD660nm, which was equivalent to 1x10^8 colony forming units (CFU) mL^−1. This suspension was further diluted to achieve 5x10^6 CFU mL^−1. The peptoids were diluted in MHB from 250 to 0.24 μg mL^−1 in 96-well polystyrene microplates (COSTAR, Corning Incorporated, New York, NY, USA) [39]. […] This was followed by addition of 100 μL of each microbial suspensions. Wells with only bacteria or the yeast were treated as a negative control, and wells with only MHB medium were treated as a blank. The plates were incubated at 37 °C with shaking at 120 rpm for 24 h. After incubation, the media in each well was serially diluted in phosphate buffered solution and then inoculated onto tryptone soya agar (Oxoid) plates for bacteria, or Sabouraud’s dextrose agar for the yeast, and incubated at 37 °C for 18 hrs. Post incubation, the number of CFUs on the agar plates was counted.

[2] = test system: Streptococcus pneumoniae SP06; details: SP06, MHB, 24 h 37 °C
From the text: as §3, §4

[3] = test system: Pseudomonas aeruginosa PA216; details: PA216, MHB, 24 h 37 °C
From the text: as §3, §4

[4] = test system: Staphylococcus aureus SA114; details: SA114, MHB, 24 h 37 °C
From the text: as §3, §4

horse erythrocytes = assay: In vitro assay for hemolysis, horse blood
Experimental: (§1) Hemolysis caused by the peptoids was measured using 18 to 20 mL of a horse or human blood collected in EDTA-coated tubes which has been centrifuged at 500×g for 5 min. The supernatant was discarded and the pellet containing the cells were resuspended in PBS to a final volume of 20 mL. This step was repeated five times. After the final wash, the pellet was resuspended in PBS at the ratio of 1:10 (1 mL red blood cell: 9 mL PBS) to yield a final red blood cell (RBC) concentration of approximately 5 × 10^8 cells mL^−1. The concentration of RBCs was confirmed using a hemocytometer. The peptoids (stock concentration 2 mM) were diluted sequentially (two-fold dilutions) in PBS to final concentrations of […]. All the dilutions were subsequently mixed with the RBC suspension at the ratio of 1:1. MilliQ water was used as a positive control and PBS was used as a negative control in this assay. All samples were incubated at 37 °C for 3 h. Following incubation, the tubes were centrifuged at 500 x g for five mins, the supernatants were collected, transferred to wells in a 96 well plate and their optical density was measured at 540 nm. The percentage of hemolysis was calculated by dividing the absorbance of the test sample by the absorbance of the positive control, and multiplying by 100. Data are presented as the hemolysis caused by each dilution of peptoid, and as the concentration of peptoid that caused 10 % or 50 % lysis of red blood cells.
(§2) The geometric mean is the nth root of the multiplied numbers, where n is the total number of data values. A similar formula was used to calculate the selectivity ratio, but by using the concentration of peptoid that caused 10 % hemolysis.

[5] = test system: Candida albicans ATCC 10231; assay: MIC/MBC (fungicidal) micro broth dilution; details: ATCC 10231 (yeast), MHB, 24 h 37 °C
From the text: as §3, §4

[6] = test system: Pseudomonas aeruginosa PA235; details: PA235, MHB, 24 h 37 °C
From the text: as §3, §4

[7] = test system: viridans group streptococcus SV06; details: SV06, MHB, 24 h 37 °C
From the text: as §3, §4

human erythrocytes = assay: In vitro assay for hemolysis, human blood
Experimental: as §1, §2

[8] = test system: Staphylococcus aureus SA117; details: SA117, MHB, 24 h 37 °C
From the text: as §3, §4

[9] = test system: Streptococcus pneumoniae SP07; details: SP07, MHB, 24 h 37 °C
From the text: as §3, §4

tested bacteria = assay: Geometric mean of MIC of the tested bacteria; details: nth root of the multiplied MICs of the tested bacteria
From the text: as §2

[10] = test system: Staphylococcus aureus SA65; details: SA65, MHB, 24 h 37 °C
From the text: as §3, §4

[11] = test system: Staphylococcus aureus SA34; details: SA34, MHB, 24 h 37 °C
From the text: as §3, §4

[12] = test system: Pseudomonas aeruginosa PA233; details: PA233, MHB, 24 h 37 °C
From the text: All S. aureus strains used were isolated from cases of microbial keratitis (Table 1) with various susceptibilities to antibiotics. The S. pneumoniae strains used were SP04, SP06 and SP07 [46] and Streptococcus gallolyticus SV06 (all isolated from eyes of contact lens wearers during adverse events); P. aeruginosa PAO1 (which was originally isolated from a wound, and is an invasive strain containing the gene exoS) as well as isolates from microbial keratitis, PA 235 (invasive strain containing exoS), PA216 (a cytotoxic strain containing exoU), PA219 (cytotoxic strain containing exoU), PA 233 (cytotoxic strain containing exoU), with various susceptibilities to antibiotics were also used. C. albicans ATCC 10231, a yeast, isolated from case of a human bronchomycosis, was also evaluated.
The peptoids’ minimum inhibitory and bactericidal concentrations (MIC and MBC) were determined using micro broth dilution methods as previously described with slight modifications, [26, 39, 49, 50], and without using acetic acid and bovine serum albumin [39]. Briefly, bacteria or yeast were suspended in Muller Hinton broth (MHB, Oxoid, Thermo Fisher Scientific, Thebarton, SA, Australia) at 0.1 OD660nm, which was equivalent to 1x10^8 colony forming units (CFU) mL^−1. This suspension was further diluted to achieve 5x10^6 CFU mL^−1. The peptoids were diluted in MHB from 250 to 0.24 μg mL^−1 in 96-well polystyrene microplates (COSTAR, Corning Incorporated, New York, NY, USA). This range was selected to cover the range of MIC values previously reported for ESKAPE pathogens. This was followed by addition of 100 μL of each microbial suspensions. Wells with only bacteria or the yeast were treated as a negative control, and wells with only MHB medium were treated as a blank. The plates were incubated at 37 °C with shaking at 120 rpm for 24 h. After incubation, the media in each well was serially diluted in phosphate buffered solution and then inoculated onto tryptone soya agar (Oxoid) plates for bacteria, or Sabouraud’s dextrose agar for the yeast, and incubated at 37 °C for 18 hrs. Post incubation, the number of CFUs on the agar plates was counted.

[13] = test system: Streptococcus pneumoniae SP04; details: SP04, MHB, 24 h 37 °C
From the text: as §3, §4

[14] = test system: Staphylococcus aureus SA113; details: SA113, MHB, 24 h 37 °C
From the text: as §3, §4

[15] = test system: Pseudomonas aeruginosa PAO1; details: PAO1, MHB
From the text: as §3, §4

[16] = test system: Streptococcus gallolyticus SG04; details: SG04, MHB, 24 h 37 °C
From the text: as §3, §4

How did the MIC ([1]; ≥90 % reduction in CFUs) turn out when CCCCCCCCCCNCC(=O)N(CCCCN)CC(=O)N(CC(=O)N(CC(=O)N(CCCCN)CC(=O)N(CC(=O)N(CC(=O)N(CCCCN)CC(N)=O)[C@@H](C)c1ccccc1)[C@@H](C)c1ccccc1)[C@@H](C)c1ccccc1)[C@@H](C)c1ccccc1 [TM18] (H-[NDecylGly][Nlys][Nspe][Nspe][Nlys][Nspe][Nspe][Nlys]-NH2) was run?
The MIC was 15 µg/mL (≈ 12.1 µM).

What about the MBC ([1]; ≥99.99 % reduction in CFUs) of the same compound?
Its MBC is 31 µg/mL (≈ 24.9 µM).

And the MIC ([2]; ≥90 % reduction in CFUs)?
The MIC was 1.9(1.6)/1.9(1.6) μg mL^−1.

And the MBC ([2]; ≥99.99 % reduction in CFUs)?
Its MBC is 1.9(1.6)/1.9(1.6) μg mL^−1.

What about the MIC ([3]; ≥90 % reduction in CFUs) of the same compound?
The MIC was 15(12)/15(12) μg mL^−1.

And the MBC ([3]; ≥99.99 % reduction in CFUs)?
The MBC was 15(12)/15(12) μg mL^−1.

What about the MIC ([4]; ≥90 % reduction in CFUs) of the same compound?
Its MIC is 3.9(3.1)/3.9(3.1) μg mL^−1.

And the MBC ([4]; ≥99.99 % reduction in CFUs)?
The MBC was 3.9(3.1)/3.9(3.1) μg mL^−1.

And the “Horse HC10” value (horse erythrocytes; concentration causing 10 % lysis of horse red blood cells, PBS, 3 h 37 °C, OD 540 nm)?
Its value is 3 µM.

What about the “Horse HC50” value (horse erythrocytes; concentration causing 50 % lysis of horse red blood cells, PBS, 3 h 37 °C, OD 540 nm) of the same compound?
Its value is 110 µM.

What about the “SR horse blood (ratio HC10 to geometric mean MIC)” value (horse erythrocytes; selectivity ratio) of the same compound?
The value was 0.6.

And the “TI horse blood (ratio HC50 to geometric mean MIC)” value (horse erythrocytes; therapeutic index)?
The value was 22.

And the MIC ([5]; ≥90 % reduction in CFUs)?
The MIC was 3.9(3.1)/3.9(3.1) μg mL^−1.

What about the “MBC (minimum fungicidal concentration)” value ([5]; ≥99.99 % reduction in CFUs) of the same compound?
The value was 3.9(3.1)/3.9(3.1) μg mL^−1.

And the MIC ([6]; ≥90 % reduction in CFUs)?
Its MIC is 7.8 µg/mL (≈ 6.27 µM).

And the MBC ([6]; ≥99.99 % reduction in CFUs)?
Its MBC is 15 µg/mL (≈ 12.1 µM).

What about the MIC ([7]; ≥90 % reduction in CFUs) of the same compound?
The MIC was 15(12)/15(12) μg mL^−1.

What about the MBC ([7]; ≥99.99 % reduction in CFUs) of the same compound?
The MBC was 15(12)/15(12) μg mL^−1.

What about the “Human HC10” value (human erythrocytes; concentration causing 10 % lysis of human red blood cells, PBS, 3 h 37 °C, OD 540 nm) of the same compound?
Its value is 5 µM.

And the “Human HC50” value (human erythrocytes; concentration causing 50 % lysis of human red blood cells, PBS, 3 h 37 °C, OD 540 nm)?
The value was 225 µM.

What about the “SR human blood (ratio HC10 to geometric mean MIC)” value (human erythrocytes; selectivity ratio) of the same compound?
Its value is 1.

And the “TI human blood (ratio HC50 to geometric mean MIC)” value (human erythrocytes; therapeutic index)?
Its value is 45.

And the MIC ([8]; ≥90 % reduction in CFUs)?
The MIC was 3.9(3.1)/3.9(3.1) μg mL^−1.

And the MBC ([8]; ≥99.99 % reduction in CFUs)?
Its MBC is 3.9(3.1)/3.9(3.1) μg mL^−1.

And the MIC ([9]; ≥90 % reduction in CFUs)?
The MIC was 15(12)/15(12) μg mL^−1.

What about the MBC ([9]; ≥99.99 % reduction in CFUs) of the same compound?
Its MBC is 15(12)/15(12) μg mL^−1.

And the “Geometric mean of MIC” value (tested bacteria)?
Its value is 5 µM.

What about the MIC ([10]; ≥90 % reduction in CFUs) of the same compound?
Its MIC is 3.9(3.1)/3.9(3.1) μg mL^−1.

And the MBC ([10]; ≥99.99 % reduction in CFUs)?
The MBC was 3.9(3.1)/3.9(3.1) μg mL^−1.

And the MIC ([11]; ≥90 % reduction in CFUs)?
Its MIC is 7.8(6.3)/7.8(6.3) μg mL^−1.

What about the MBC ([11]; ≥99.99 % reduction in CFUs) of the same compound?
The MBC was 7.8(6.3)/7.8(6.3) μg mL^−1.

And the MIC ([12]; ≥90 % reduction in CFUs)?
The MIC was 15 µg/mL (≈ 12.1 µM).

And the MBC ([12]; ≥99.99 % reduction in CFUs)?
The MBC was 31 µg/mL (≈ 24.9 µM).

What about the MIC ([13]; ≥90 % reduction in CFUs) of the same compound?
The MIC was 15(12)/15(12) μg mL^−1.

And the MBC ([13]; ≥99.99 % reduction in CFUs)?
Its MBC is 15(12)/15(12) μg mL^−1.

And the MIC ([14]; ≥90 % reduction in CFUs)?
The MIC was 1.9 µg/mL (≈ 1.53 µM).

What about the MBC ([14]; ≥99.99 % reduction in CFUs) of the same compound?
Its MBC is 1.95 µg/mL (≈ 1.57 µM).

And the MIC ([15]; 5x10^6 CFU mL^−1, 24 h 37 °C, ≥90 % reduction in CFUs)?
Its MIC is 15 µg/mL (≈ 12.1 µM).

What about the MBC ([15]; 24 h 37 °C, ≥99.99 % reduction in CFUs) of the same compound?
Its MBC is 31 µg/mL (≈ 24.9 µM).

And the MIC ([16]; ≥90 % reduction in CFUs)?
The MIC was 15(12)/1512) μg mL^−1.

And the MBC ([16]; ≥99.99 % reduction in CFUs)?
Its MBC is 15(12)/1512) μg mL^−1.
